Test results published in ChEMBL document CHEMBL5338809, “Fragment-Based Discovery of Azocyclic Alkyl Naphthalenesulfonamides as Keap1-Nrf2 Inhibitors for Acute Lung Injury Treatment” (J Med Chem, 2023).
Calls of active or inactive are those of the source. No cut-off for these calls is given here.

Legend:
[1] = target: Keap1/Nrf2 (Homo sapiens) (UniProt Q16236+Q14145); assay: Binding affinity to human Keap1-Nrf2 protein-protein interaction assessed as dissociation constant (Kd2) incubated for 60 mins by fluorescent polarization assay
Chain of Keap1/Nrf2 (Homo sapiens) (Q14145 whole entry, looked up): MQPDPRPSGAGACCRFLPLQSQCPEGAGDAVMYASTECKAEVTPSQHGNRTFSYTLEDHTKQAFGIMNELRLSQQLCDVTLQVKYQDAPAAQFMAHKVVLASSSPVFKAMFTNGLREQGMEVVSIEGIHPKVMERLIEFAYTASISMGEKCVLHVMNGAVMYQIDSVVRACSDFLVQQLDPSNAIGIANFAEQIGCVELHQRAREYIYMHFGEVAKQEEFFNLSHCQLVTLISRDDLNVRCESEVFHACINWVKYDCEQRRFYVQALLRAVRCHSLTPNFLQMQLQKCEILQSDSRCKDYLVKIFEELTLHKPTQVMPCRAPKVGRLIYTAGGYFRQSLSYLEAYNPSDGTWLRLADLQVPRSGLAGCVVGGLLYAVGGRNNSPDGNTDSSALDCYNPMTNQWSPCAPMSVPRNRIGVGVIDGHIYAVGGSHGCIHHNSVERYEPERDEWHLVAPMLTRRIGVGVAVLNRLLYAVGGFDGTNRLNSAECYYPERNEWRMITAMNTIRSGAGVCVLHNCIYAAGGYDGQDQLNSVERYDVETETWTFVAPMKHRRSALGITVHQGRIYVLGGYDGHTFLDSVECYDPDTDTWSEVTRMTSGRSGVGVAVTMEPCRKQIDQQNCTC
Chain of Keap1/Nrf2 (Homo sapiens) (Q16236 whole entry, looked up): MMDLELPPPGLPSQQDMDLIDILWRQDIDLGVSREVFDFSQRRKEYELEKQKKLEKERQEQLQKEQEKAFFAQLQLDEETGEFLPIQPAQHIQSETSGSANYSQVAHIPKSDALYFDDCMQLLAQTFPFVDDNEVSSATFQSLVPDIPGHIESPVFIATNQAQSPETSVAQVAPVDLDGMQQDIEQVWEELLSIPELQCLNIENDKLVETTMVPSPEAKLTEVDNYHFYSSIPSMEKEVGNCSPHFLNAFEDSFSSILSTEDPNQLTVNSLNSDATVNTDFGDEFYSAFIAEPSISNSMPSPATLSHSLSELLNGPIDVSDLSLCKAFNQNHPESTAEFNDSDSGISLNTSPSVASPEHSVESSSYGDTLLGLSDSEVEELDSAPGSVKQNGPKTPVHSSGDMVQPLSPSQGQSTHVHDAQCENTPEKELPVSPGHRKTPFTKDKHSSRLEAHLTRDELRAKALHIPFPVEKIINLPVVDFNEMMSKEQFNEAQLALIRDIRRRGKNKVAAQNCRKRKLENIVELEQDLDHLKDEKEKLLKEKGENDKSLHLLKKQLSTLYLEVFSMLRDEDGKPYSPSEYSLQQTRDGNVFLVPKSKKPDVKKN

[2] = Cytotoxicity against mouse peritoneal macrophages assessed as reduction in cell viability incubated for 24 hrs by Cell titer-blue assay; format: toxicity, cell-based, Peritoneal macrophage
Peritoneal macrophage [3] = assay: Antiinflammatory activity in mouse peritoneal macrophages assessed as fold reduction in LPS-induced TNFalpha level at 10 uM incubated for 4 hrs by ELISA method; format: functional
Peritoneal macrophage [4] = assay: Antiinflammatory activity in mouse peritoneal macrophages assessed as reduction in LPS-induced IL6 level at 10 uM incubated for 4 hrs by ELISA method; format: functional, cell-based
[5] = Aqueous solubility of the compound in PBS at pH 2 at 2 mg incubated for 24 hrs by HPLC-UV analysis; format: physicochemical
[6] = Aqueous solubility of the compound in PBS at pH 7 at 2 mg incubated for 24 hrs by HPLC-UV analysis; format: physicochemical
[7] = Aqueous solubility of the compound in PBS at pH 7.4 at 2 mg incubated for 24 hrs by HPLC-UV analysis; format: physicochemical

For `COc1ccc(S(=O)(=O)N(CC(N)=O)c2ccc(N(CC(N)=O)S(=O)(=O)c3ccc(NC(=O)C4CCN4)cc3)c3ccccc23)cc1` (stereo not given), the K [1] was 260 nM, the CC50 at 24 h [2] was greater than 100 µM and the “fold change (FC)” value (Peritoneal macrophage [3]) was “<=0.5”. The Activity (Peritoneal macrophage [4]) was “Active”.
For `COc1ccc(S(=O)(=O)N(CC(N)=O)c2ccc(N(CC(N)=O)S(=O)(=O)c3ccc(NC(=O)CN)cc3)c3ccccc23)cc1`, the K [1] was 250 nM, the CC50 at 24 h [2] was greater than 100 µM and the “fold change (FC)” value (Peritoneal macrophage [3]) was “<=0.5”.
In the case of `COC[C@@H](N)C(=O)Nc1ccc(S(=O)(=O)N(CC(N)=O)c2ccc(N(CC(N)=O)S(=O)(=O)c3ccc(OC)cc3)c3ccccc23)cc1`, the K [1] was 280 nM, the CC50 at 24 h [2] was greater than 100 µM and the “fold change (FC)” value (Peritoneal macrophage [3]) was “<=0.5”.
With `CC[C@H](N)C(=O)Nc1ccc(S(=O)(=O)N(CC(N)=O)c2ccc(N(CC(N)=O)S(=O)(=O)c3ccc(OC)cc3)c3ccccc23)cc1` the K [1] was 530 nM, the CC50 at 24 h [2] was greater than 100 µM and the “fold change (FC)” value (Peritoneal macrophage [3]) was “<=0.5”.
With `COc1ccc(S(=O)(=O)N(CC(N)=O)c2ccc(N(CC(N)=O)S(=O)(=O)c3ccc(NC(=O)[C@H](N)Cc4ccccc4)cc3)c3ccccc23)cc1` the K [1] was 1170 nM, the CC50 at 24 h [2] was greater than 100 µM and the “fold change (FC)” value (Peritoneal macrophage [3]) was “<=0.5”.
With `COc1ccc(S(=O)(=O)N(CC(N)=O)c2ccc(N(CC(N)=O)S(=O)(=O)c3ccc(NC(=O)[C@@H](N)CSC)cc3)c3ccccc23)cc1` the K [1] was 440 nM, the CC50 at 24 h [2] was greater than 100 µM and the “fold change (FC)” value (Peritoneal macrophage [3]) was “<=0.5”.
In the case of `COc1ccc(S(=O)(=O)N(CC(N)=O)c2ccc(N(CC(N)=O)S(=O)(=O)c3ccc(NC(=O)[C@@H]4CCNC4)cc3)c3ccccc23)cc1`, the K [1] was 240 nM, the CC50 at 24 h [2] was greater than 100 µM and the “fold change (FC)” value (Peritoneal macrophage [3]) was “<=0.5”. The Activity (Peritoneal macrophage [4]) was “Active”.
With `COCC(=O)Nc1ccc(S(=O)(=O)N(CC(N)=O)c2ccc(N(CC(N)=O)S(=O)(=O)c3ccc(OC)cc3)c3ccccc23)cc1` the K [1] was 550 nM, the CC50 at 24 h [2] was greater than 100 µM and the “fold change (FC)” value (Peritoneal macrophage [3]) was “<=0.5”.
Compound `Br.COc1ccc(S(=O)(=O)N(CC(N)=O)c2ccc(N(CC(N)=O)S(=O)(=O)c3ccc(NC(=O)[C@H]4CCN4)cc3)c3ccccc23)cc1` has a solubility at 24 h [5] of 672 µg/mL, a solubility at 24 h [6] of 256 µg/mL and a solubility at 24 h [7] of 137 µg/mL.
In the case of `COc1ccc(S(=O)(=O)N(CC(N)=O)c2ccc(N(CC(N)=O)S(=O)(=O)c3ccc(NC(=O)CCCCN)cc3)c3ccccc23)cc1`, the K [1] was 270 nM, the CC50 at 24 h [2] was greater than 100 µM and the “fold change (FC)” value (Peritoneal macrophage [3]) was “<=0.5”.
In the case of `COc1ccc(S(=O)(=O)N(CC(N)=O)c2ccc(N(CC(N)=O)S(=O)(=O)c3ccc(NC(=O)[C@H]4CCNC4)cc3)c3ccccc23)cc1`, the K [1] was 250 nM, the CC50 at 24 h [2] was greater than 100 µM and the “fold change (FC)” value (Peritoneal macrophage [3]) was “<=0.5”. The Activity (Peritoneal macrophage [4]) was “Active”.
With `COC[C@H](N)C(=O)Nc1ccc(S(=O)(=O)N(CC(N)=O)c2ccc(N(CC(N)=O)S(=O)(=O)c3ccc(OC)cc3)c3ccccc23)cc1` the K [1] was 330 nM, the CC50 at 24 h [2] was greater than 100 µM and the “fold change (FC)” value (Peritoneal macrophage [3]) was “<=0.5”. For the same compound, the Activity (Peritoneal macrophage [4]) was “Active”.
In the case of `COc1ccc(S(=O)(=O)N(CC(N)=O)c2ccc(N(CC(N)=O)S(=O)(=O)c3ccc(NC(=O)CCCN)cc3)c3ccccc23)cc1`, the K [1] was 630 nM, the CC50 at 24 h [2] was greater than 100 µM and the “fold change (FC)” value (Peritoneal macrophage [3]) was “<=0.5”.
In the case of `CC[C@@H](N)C(=O)Nc1ccc(S(=O)(=O)N(CC(N)=O)c2ccc(N(CC(N)=O)S(=O)(=O)c3ccc(OC)cc3)c3ccccc23)cc1`, the K [1] was 320 nM, the CC50 at 24 h [2] was greater than 100 µM and the “fold change (FC)” value (Peritoneal macrophage [3]) was “<=0.5”. The Activity (Peritoneal macrophage [4]) was “Active”.
Compound `COc1ccc(S(=O)(=O)N(CC(N)=O)c2ccc(N(CC(N)=O)S(=O)(=O)c3ccc(NC(=O)[C@H]4CCN4)cc3)c3ccccc23)cc1.O=C(O)CCC(=O)O` has a solubility at 24 h [5] of 145 µg/mL, a solubility at 24 h [6] of 60.6 µg/mL and a solubility at 24 h [7] of 65.6 µg/mL.
Compound `COc1ccc(S(=O)(=O)N(CC(N)=O)c2ccc(N(CC(N)=O)S(=O)(=O)c3ccc(NC(=O)[C@H]4CCN4)cc3)c3ccccc23)cc1.O=C(O)C(F)(F)F` has a solubility at 24 h [5] of 423 µg/mL, a solubility at 24 h [6] of 292 µg/mL and a solubility at 24 h [7] of 275 µg/mL.
For `COc1ccc(S(=O)(=O)N(CC(N)=O)c2ccc(N(CC(N)=O)S(=O)(=O)c3ccc(NC(=O)[C@H](N)C(C)C)cc3)c3ccccc23)cc1`, the K [1] was 810 nM, the CC50 at 24 h [2] was greater than 100 µM and the “fold change (FC)” value (Peritoneal macrophage [3]) was “<=0.5”.
For `COc1ccc(S(=O)(=O)N(CC(N)=O)c2ccc(N(CC(N)=O)S(=O)(=O)c3ccc(NC(=O)[C@H]4CCCN4)cc3)c3ccccc23)cc1`, the K [1] was 300 nM, the CC50 at 24 h [2] was greater than 100 µM and the “fold change (FC)” value (Peritoneal macrophage [3]) was “<=0.5”. For the same compound, the Activity (Peritoneal macrophage [4]) was “Active”.
In the case of `COc1ccc(S(=O)(=O)N(CC(N)=O)c2ccc(N(CC(N)=O)S(=O)(=O)c3ccc(NC(=O)[C@@H](N)C(C)C)cc3)c3ccccc23)cc1`, the K [1] was 400 nM, the CC50 at 24 h [2] was greater than 100 µM and the “fold change (FC)” value (Peritoneal macrophage [3]) was “<=0.5”.
With `COc1ccc(S(=O)(=O)N(CC(N)=O)c2ccc(N(CC(N)=O)S(=O)(=O)c3ccc(NC(=O)[C@@H]4CCCNC4)cc3)c3ccccc23)cc1` the K [1] was 270 nM, the CC50 at 24 h [2] was greater than 100 µM and the “fold change (FC)” value (Peritoneal macrophage [3]) was “<=0.5”. For the same compound, the Activity (Peritoneal macrophage [4]) was “Active”.
For `COc1ccc(S(=O)(=O)N(CC(N)=O)c2ccc(N(CC(N)=O)S(=O)(=O)c3ccc(NC(=O)[C@H]4CCCNC4)cc3)c3ccccc23)cc1`, the K [1] was 400 nM, the CC50 at 24 h [2] was greater than 100 µM and the “fold change (FC)” value (Peritoneal macrophage [3]) was “<=0.5”.
For `COc1ccc(S(=O)(=O)N(CC(N)=O)c2ccc(N(CC(N)=O)S(=O)(=O)c3ccc(NC(=O)[C@@H](N)Cc4ccccc4)cc3)c3ccccc23)cc1`, the K [1] was 820 nM, the CC50 at 24 h [2] was greater than 100 µM and the “fold change (FC)” value (Peritoneal macrophage [3]) was “<=0.5”.
For `COc1ccc(S(=O)(=O)N(CC(N)=O)c2ccc(N(CC(N)=O)S(=O)(=O)c3ccc(NC(=O)[C@@H]4CCN4)cc3)c3ccccc23)cc1`, the K [1] was 650 nM, the CC50 at 24 h [2] was greater than 100 µM and the “fold change (FC)” value (Peritoneal macrophage [3]) was “<=0.5”.
For `COc1ccc(S(=O)(=O)N(CC(N)=O)c2ccc(N(CC(N)=O)S(=O)(=O)c3ccc(NC(=O)[C@H](C)N)cc3)c3ccccc23)cc1`, the K [1] was 240 nM, the CC50 at 24 h [2] was greater than 100 µM and the “fold change (FC)” value (Peritoneal macrophage [3]) was “<=0.5”. The Activity (Peritoneal macrophage [4]) was “Active”.
In the case of `CCC[C@@H](N)C(=O)Nc1ccc(S(=O)(=O)N(CC(N)=O)c2ccc(N(CC(N)=O)S(=O)(=O)c3ccc(OC)cc3)c3ccccc23)cc1`, the K [1] was 590 nM, the CC50 at 24 h [2] was greater than 100 µM and the “fold change (FC)” value (Peritoneal macrophage [3]) was “<=0.5”.
In the case of `COc1ccc(S(=O)(=O)N(CC(N)=O)c2ccc(N(CC(N)=O)S(=O)(=O)c3ccc(NC(=O)[C@@H](C)N)cc3)c3ccccc23)cc1`, the K [1] was 230 nM, the CC50 at 24 h [2] was greater than 100 µM and the “fold change (FC)” value (Peritoneal macrophage [3]) was “<=0.5”. For the same compound, the Activity (Peritoneal macrophage [4]) was “Active”.
For `COc1ccc(S(=O)(=O)N(CC(N)=O)c2ccc(N(CC(N)=O)S(=O)(=O)c3ccc(NC(=O)C4CCCNC4)cc3)c3ccccc23)cc1` (stereo not given), the K [1] was 430 nM, the CC50 at 24 h [2] was greater than 100 µM and the “fold change (FC)” value (Peritoneal macrophage [3]) was “<=0.5”.
With `COc1ccc(S(=O)(=O)N(CC(N)=O)c2ccc(N(CC(N)=O)S(=O)(=O)c3ccc(NC(=O)CCN)cc3)c3ccccc23)cc1` the K [1] was 440 nM, the CC50 at 24 h [2] was greater than 100 µM and the “fold change (FC)” value (Peritoneal macrophage [3]) was “<=0.5”.
For `COc1ccc(S(=O)(=O)N(CC(N)=O)c2ccc(N(CC(N)=O)S(=O)(=O)c3ccc(NC(=O)C4CCNC4)cc3)c3ccccc23)cc1` (stereo not given), the K [1] was 280 nM, the CC50 at 24 h [2] was greater than 100 µM and the “fold change (FC)” value (Peritoneal macrophage [3]) was “<=0.5”. For the same compound, the Activity (Peritoneal macrophage [4]) was “Active”.
For `COc1ccc(S(=O)(=O)N(CC(N)=O)c2ccc(N(CC(N)=O)S(=O)(=O)c3ccc(NC(=O)[C@@H]4CCCN4)cc3)c3ccccc23)cc1`, the K [1] was 270 nM, the CC50 at 24 h [2] was greater than 100 µM and the “fold change (FC)” value (Peritoneal macrophage [3]) was “<=0.5”. The Activity (Peritoneal macrophage [4]) was “Active”.
In the case of `CNCC(=O)Nc1ccc(S(=O)(=O)N(CC(N)=O)c2ccc(N(CC(N)=O)S(=O)(=O)c3ccc(OC)cc3)c3ccccc23)cc1`, the K [1] was 250 nM, the CC50 at 24 h [2] was greater than 100 µM and the “fold change (FC)” value (Peritoneal macrophage [3]) was “<=0.5”. For the same compound, the Activity (Peritoneal macrophage [4]) was “Active”.
